Results as given in patent publication US8748602B2, “Polymorphs of erlotinib hydrochloride and method of preparation” (Natco Pharma Limited, priority 2007, dated 2014).
Counter-ions that a name gives are not always drawn.

What was measured:
[1] = solid state stability of the polymorphic forms; format: physicochemical
[2] = compared with polymorphic Form A; cited from earlier work

| stability in the solid state ([1]; higher temperatures of the order of 60°-120° C.) | stability in the solid state ([1]; room temperature (30°-35° C.)) | Structure (SMILES) | thermodynamic stability [2] |
| --- | --- | --- | --- |
| very stable | very stable | C#Cc1cccc(Nc2ncnc3cc(OCCOC)c(OCCOC)cc23)c1.Cl [Form-M, Erlotinib Hydrochloride] |  |
|  |  | C#Cc1cccc(Nc2ncnc3cc(OCCOC)c(OCCOC)cc23)c1 [Form-B, Erlotinib HCl] | thermodynamically more stable |
